Data taken from US20240238366A1, “alpha-SYNUCLEIN AGGREGATION INHIBITOR, PHARMACEUTICAL COMPOSITION FOR alpha-SYNUCLEIN DISEASE, AND USE THEREOF” (O-FORCE CO., LTD., priority 2021, published 2024).
Blank lines part the entries; values can stand above or below the substance they belong to. Ends that are not written are not given here.

Experiments:
[1] = molecular target: Syn61-84 (Homo sapiens, UniProt P37840); assay: Inhibition of aggregate formation of Syn61-84, ThT fluorescence (Example B2); format: biochemical
Method: Specifically, reaction solutions with the following compositions were prepared and each dispensed into wells such that the amount of the reaction solution per well was 200 μL. In the following compositions, X mmol/L peptides (aggregation inhibiting peptide solutions: YS-11 and LYZA-3) were prepared using MilliQ water, and the concentration X mmol/L was set to 1 μmol/L, […], and 100 μmol/L in the reaction solutions. […] After the reaction solutions were incubated at 37° C. for 24 hours, 10 μL of 2 mmol/L ThT was added per well, and the fluorescence intensity was measured using a measurement device (product name: Cytation5, manufactured by BioTek) (n=3). The measurement wavelengths were set such that the excitation wavelength (ex) was 444 nm and the fluorescence wavelength (em) was 480 nm. As a control, a reaction solution to which water was added instead of the aggregation inhibiting peptides (YS-11 and LYZA-3) was also measured in the same way.

[2] = molecular target: Syn61-84 aggregates (Homo sapiens, UniProt P37840); assay: Dissociation of Syn61-84 aggregates, ThT fluorescence (Example B3); format: biochemical; settings: peptide 0.1, 1, 10, 100 μmol/L; 0.1 mM preformed Syn61-84 aggregates; 37° C. 24 hours
Method: Then, reaction solutions with the following compositions were prepared and each dispensed into wells such that the amount of the reaction solution per well was 200 μL, and, after the reaction solutions were incubated at 37° C. for 24 hours, 10 μL of 2 mmol/L ThT was added per well, and the fluorescence intensity was measured using a measurement device (product name Cytation5, manufactured by BioTek) (n=3). The measurement wavelengths were set such that the excitation wavelength (ex) was 444 nm and the fluorescence wavelength (em) was 480 nm. In the following compositions, X mmol/L peptides (aggregation inhibiting peptides: YS-11 and LYZA-3) were prepared using MilliQ water, and the concentration X mmol/L was set to 0.1 μmol/L, 1 μmol/L, 10 μmol/L, and 100 μmol/L in the reaction solutions. As a control, a reaction solution to which water was added instead of the peptide YS-11 and the peptide LYZA-3 was also measured in the same way.

[3] = system: Parkinson's disease model mice; assay: Rota-Rod test in Parkinson's disease model mice produced with Syn61-84 (Example B4); format: in vivo
Method: (§1) As a control, a saline solution (Saline) was used.
(§2) The aggregation inhibiting peptide was not administered to the Saline administration group (n=3).
(§3) The short-term memory was evaluated through a Y-maze test on Day 14, Day 56, and Day 74, and the motor function was evaluated through a Rota-Rod test on Day 21, Day 55, Day 63, and Day 70. […] The Rota-Rod test was conducted using a rotor-rod device for mice (product name: MK-670, manufactured by Muromachi Kikai Co., Ltd.), with the rotational speed of the rotor set at 10 or 20 rpm, and the time until a mouse on the rotating rotor fell was measured.

[4] = system: Parkinson's disease model mice; assay: Y-maze test in Parkinson's disease model mice produced with Syn61-84 (Example B4); format: in vivo; settings: Day 74; 4 μL of 1 mmol/L inhibiting peptide on Day 56 to Syn61-84 mice
Method: as §1, §2, §3

[5] = system: mouse neuroblastoma (Neuro2a) cells; assay: Cell viability by WST-8 method after addition of incubated reaction solutions (Example B6); format: cell-based; settings: reaction solution containing only the aggregation inhibiting peptide
Method: Then, reaction solutions with the following compositions were prepared using these solutions. The reaction solutions were incubated at 37° C. for 24 hours.
Meanwhile, 0.15 mL of medium per well was placed in the wells of a 96-well plate, and mouse neuroblastoma (Neuro2a) cells were seeded to be 2.66×10^4 cells per well. After incubation at 37° C. for 24 hours, 50 μL of each reaction solution after the incubation was added per well and further incubated at 37° C. for 24 hours. The cell viability (%) was then measured for each well by the WST-8 method.

[6] = Solubility in aqueous solvent, visual check for precipitation; format: physicochemical; settings: room temperature
Method: For each of the example peptides (Syn FPs) and the comparative example peptides, a 1 mmol/L peptide solution was prepared using MilliQ water as an aqueous solvent.
Each peptide was dissolved in a saline solution to prepare a 1 mmol/L sample solution.

fluorescence intensity (ThT) compared with the control (Syn61-84), dissociation of aggregates [2]: fluorescence intensity decreased
Substance: YSNFNTDY (aggregation inhibitor peptide) [LYZA-3]
aggregation inhibition ability compared at the same concentration (formation of aggregates) ([1]; comparison between FIGS. 4(A) and 4(B)): greater aggregation inhibition ability than the peptide YS-11 | fluorescence intensity (ThT) compared with the control (Syn61-84) ([1]; peptide 1 μmol/L, 100 μmol/L, 0.1 mM Syn61-84, 37° C. 24 hours): decreased in a concentration-dependent manner | spent time (Rota-Rod) at 10 rpm ([3]; 10 rpm, RR-3 and RR-4 after inhibiting peptide on Day 56): significant increase | spent time (Rota-Rod) at 10 rpm versus Saline administration group ([3]; 10 rpm, RR-4): longer than that of the Saline administration group | spent time (Rota-Rod) ([3]; RR-3 and RR-4, after inhibiting peptide on Day 56 to Syn61-84 mice): increase in the spent time | alternation rate (Y-maze) compared with Saline administration group [4]: increase in the alternation rate

Substance: RETLVYLTHLD [YS-11]
cell viability (control taken as 100%) [5]: no effect on the cell viability

solubility (visual precipitation) ([6]; 1 mmol/L in saline solution): No precipitation
Substance: VVTGVTAVAQKTVEG [Syn70-84, reference compound]

Substance: α-synuclein [full-length Syn]
solubility (visual precipitation) ([6]; 1 mmol/L in MilliQ water): precipitation of Syn was immediately visible
